Key:
human Nav1.3 channels = target: T1, human Nav1.3 channels (Homo sapiens, UniProt Q9NY46); experiment: FRET assay, human Nav1.3 (EFS on FDSS); assay type: cell-based; details: HEK293 cells expressing human Nav1.3, read-out: IC50 against Nav1.3
T1 construct: expressed in transfected cells; host or cells: HEK293
Outline: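 HEK293 cells expressing the channel, loaded with 10 microM CC2-DMPE then 15 microM DiSBAC2(3) plus 0.555 mM VABSC-1 in pH 7.4 HEPES buffer at room temperature. Membrane potential changes evoked by electrical field stimulation after compound addition; IC50 from 440 nm-normalized FRET ratios.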

human Nav1.7 channels = target: T2, human Nav1.7 channels (Homo sapiens, UniProt Q15858); experiment: FRET assay, human Nav1.7 (EFS on FDSS); assay type: cell-based; details: CHO cells expressing human Nav1.7, read-out: IC50 against Nav1.7
T2 construct: expressed in transfected cells; host or cells: CHO
T2 sequence (Q15858 whole entry): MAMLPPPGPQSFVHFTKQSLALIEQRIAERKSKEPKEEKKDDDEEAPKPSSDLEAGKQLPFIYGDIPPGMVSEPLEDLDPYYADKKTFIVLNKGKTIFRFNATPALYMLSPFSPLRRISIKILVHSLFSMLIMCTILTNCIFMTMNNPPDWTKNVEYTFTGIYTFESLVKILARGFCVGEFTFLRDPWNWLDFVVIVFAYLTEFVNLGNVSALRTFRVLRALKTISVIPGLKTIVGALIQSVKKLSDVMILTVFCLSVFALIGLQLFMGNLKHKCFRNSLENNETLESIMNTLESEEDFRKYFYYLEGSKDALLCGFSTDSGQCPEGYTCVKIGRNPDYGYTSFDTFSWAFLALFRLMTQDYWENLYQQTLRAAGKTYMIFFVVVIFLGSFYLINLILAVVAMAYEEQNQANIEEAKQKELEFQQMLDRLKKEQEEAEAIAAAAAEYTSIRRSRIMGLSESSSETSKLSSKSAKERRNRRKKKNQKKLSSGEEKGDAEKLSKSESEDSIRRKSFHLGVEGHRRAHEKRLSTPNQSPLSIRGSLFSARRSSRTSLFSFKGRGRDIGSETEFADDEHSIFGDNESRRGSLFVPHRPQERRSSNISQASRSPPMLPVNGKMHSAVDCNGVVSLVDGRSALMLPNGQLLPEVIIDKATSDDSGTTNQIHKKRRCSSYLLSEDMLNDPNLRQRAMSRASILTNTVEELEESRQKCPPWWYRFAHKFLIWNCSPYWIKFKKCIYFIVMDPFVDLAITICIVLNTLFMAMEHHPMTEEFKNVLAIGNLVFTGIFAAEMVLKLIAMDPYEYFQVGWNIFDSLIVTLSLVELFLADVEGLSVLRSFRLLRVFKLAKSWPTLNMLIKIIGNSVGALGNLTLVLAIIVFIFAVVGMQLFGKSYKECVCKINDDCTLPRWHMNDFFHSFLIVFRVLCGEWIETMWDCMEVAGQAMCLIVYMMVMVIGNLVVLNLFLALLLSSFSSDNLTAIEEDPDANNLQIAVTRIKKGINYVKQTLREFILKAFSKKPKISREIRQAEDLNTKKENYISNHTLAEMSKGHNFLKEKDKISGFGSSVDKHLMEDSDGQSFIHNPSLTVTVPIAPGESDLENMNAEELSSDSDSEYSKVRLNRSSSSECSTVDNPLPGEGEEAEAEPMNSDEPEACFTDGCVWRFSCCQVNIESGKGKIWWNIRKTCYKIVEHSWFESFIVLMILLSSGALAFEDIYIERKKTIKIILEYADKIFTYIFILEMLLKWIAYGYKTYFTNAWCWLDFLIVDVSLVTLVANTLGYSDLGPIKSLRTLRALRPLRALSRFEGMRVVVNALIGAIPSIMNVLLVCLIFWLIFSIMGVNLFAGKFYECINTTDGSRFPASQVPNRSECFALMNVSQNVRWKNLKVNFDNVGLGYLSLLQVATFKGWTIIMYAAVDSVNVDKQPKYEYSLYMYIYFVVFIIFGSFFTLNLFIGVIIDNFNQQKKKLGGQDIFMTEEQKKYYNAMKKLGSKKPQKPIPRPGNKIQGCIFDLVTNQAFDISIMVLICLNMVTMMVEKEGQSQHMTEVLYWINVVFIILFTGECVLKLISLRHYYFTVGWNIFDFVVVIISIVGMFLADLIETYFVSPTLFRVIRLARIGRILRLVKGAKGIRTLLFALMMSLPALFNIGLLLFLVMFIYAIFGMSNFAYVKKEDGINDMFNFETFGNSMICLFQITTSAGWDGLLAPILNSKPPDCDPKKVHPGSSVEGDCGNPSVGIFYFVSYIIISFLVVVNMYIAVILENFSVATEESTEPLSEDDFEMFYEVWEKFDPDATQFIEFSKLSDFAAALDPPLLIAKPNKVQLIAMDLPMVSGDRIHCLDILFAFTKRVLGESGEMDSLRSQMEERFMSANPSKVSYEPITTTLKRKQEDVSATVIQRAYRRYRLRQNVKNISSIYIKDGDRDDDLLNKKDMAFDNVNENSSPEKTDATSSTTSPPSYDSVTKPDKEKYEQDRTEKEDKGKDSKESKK
Outline: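 CHO cells stably expressing the channel, loaded with CC2-DMPE (10 µM) then DiSBAC2(3) (15 µM) plus VABSC-1, in HEPES-buffered saline pH 7.4 at room temperature. Electrical field stimulation on FDSS; FRET ratio at 440 nm fitted for IC50.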

T1 sequence (Q9NY46 whole entry): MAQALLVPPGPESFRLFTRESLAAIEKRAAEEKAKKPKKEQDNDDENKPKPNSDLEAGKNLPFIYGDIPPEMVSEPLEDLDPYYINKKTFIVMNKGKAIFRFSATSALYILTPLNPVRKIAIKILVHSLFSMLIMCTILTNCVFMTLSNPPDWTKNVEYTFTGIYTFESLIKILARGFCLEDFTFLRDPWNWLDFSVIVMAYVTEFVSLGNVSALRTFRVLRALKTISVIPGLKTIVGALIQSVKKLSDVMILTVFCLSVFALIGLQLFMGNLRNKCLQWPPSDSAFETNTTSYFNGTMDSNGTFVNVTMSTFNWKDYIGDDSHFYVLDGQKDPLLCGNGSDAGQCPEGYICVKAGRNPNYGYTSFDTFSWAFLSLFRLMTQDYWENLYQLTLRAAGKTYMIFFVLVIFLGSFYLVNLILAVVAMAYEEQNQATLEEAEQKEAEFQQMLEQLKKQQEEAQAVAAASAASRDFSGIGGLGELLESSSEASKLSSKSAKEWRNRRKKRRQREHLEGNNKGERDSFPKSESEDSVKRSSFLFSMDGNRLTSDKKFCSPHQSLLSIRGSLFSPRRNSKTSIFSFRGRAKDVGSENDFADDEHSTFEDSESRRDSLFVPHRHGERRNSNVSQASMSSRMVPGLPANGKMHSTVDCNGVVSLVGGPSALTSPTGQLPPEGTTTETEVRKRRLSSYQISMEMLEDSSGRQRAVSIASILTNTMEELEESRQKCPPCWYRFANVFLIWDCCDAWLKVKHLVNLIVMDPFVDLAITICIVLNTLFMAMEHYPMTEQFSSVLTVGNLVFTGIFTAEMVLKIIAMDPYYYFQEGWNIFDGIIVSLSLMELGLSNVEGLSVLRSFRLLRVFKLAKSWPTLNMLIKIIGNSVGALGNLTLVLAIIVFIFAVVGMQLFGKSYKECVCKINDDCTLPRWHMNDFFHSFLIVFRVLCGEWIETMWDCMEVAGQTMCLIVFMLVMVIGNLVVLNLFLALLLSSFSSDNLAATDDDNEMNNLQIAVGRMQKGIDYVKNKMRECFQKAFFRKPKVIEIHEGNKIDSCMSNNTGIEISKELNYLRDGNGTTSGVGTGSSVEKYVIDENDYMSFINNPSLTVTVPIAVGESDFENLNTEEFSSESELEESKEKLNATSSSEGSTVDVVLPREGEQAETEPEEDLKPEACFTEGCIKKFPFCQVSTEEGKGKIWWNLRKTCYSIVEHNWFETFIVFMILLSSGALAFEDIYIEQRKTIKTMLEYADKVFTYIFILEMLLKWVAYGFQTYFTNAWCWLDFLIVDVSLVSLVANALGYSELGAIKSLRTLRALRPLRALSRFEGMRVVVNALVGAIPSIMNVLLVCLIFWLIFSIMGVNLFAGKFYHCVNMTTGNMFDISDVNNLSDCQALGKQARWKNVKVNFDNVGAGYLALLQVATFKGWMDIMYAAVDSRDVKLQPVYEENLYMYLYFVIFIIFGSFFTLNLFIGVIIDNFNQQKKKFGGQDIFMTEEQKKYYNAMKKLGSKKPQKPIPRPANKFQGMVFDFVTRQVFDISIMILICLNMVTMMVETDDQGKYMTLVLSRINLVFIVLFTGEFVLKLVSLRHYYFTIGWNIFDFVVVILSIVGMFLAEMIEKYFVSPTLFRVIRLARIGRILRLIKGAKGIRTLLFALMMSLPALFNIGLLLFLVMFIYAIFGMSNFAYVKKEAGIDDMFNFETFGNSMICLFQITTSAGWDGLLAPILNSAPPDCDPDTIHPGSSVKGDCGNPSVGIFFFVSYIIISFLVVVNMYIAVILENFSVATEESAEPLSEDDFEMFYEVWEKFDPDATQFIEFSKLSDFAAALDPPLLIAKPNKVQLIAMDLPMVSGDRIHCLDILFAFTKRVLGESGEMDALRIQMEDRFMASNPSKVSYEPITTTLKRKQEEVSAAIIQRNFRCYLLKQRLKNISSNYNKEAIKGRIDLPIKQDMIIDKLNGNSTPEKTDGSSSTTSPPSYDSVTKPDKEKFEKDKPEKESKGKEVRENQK

Row | SMILES | IC50 (human Nav1.3 channels) | IC50 (human Nav1.7 channels)
1 | Cc1cc(C(=O)NC(C)c2cnc(OCC(F)(F)F)c(Cl)c2)cc(NC(=O)C2CC2)n1 (single isomer, unassigned) [Example 832, N-(1-(5-chloro-6-(2,2,2-trifluoroethoxy)pyridin-3-yl)ethyl)-2-(cyclopropanecarboxamido)-6-methylisonicotinamide] | < 1000 nM | < 1000 nM
2 | CC(=O)Nc1cc(C(=O)NCc2cnc(OCC(F)(F)C(F)F)c(C)c2)cc(C)n1 [Example 944, 2-acetamido-6-methyl-N-((5-methyl-6-(2,2,3,3-tetrafluoropropoxy)pyridin-3-yl)methyl)isonicotinamide] | < 1000 nM | < 1000 nM
3 | CCC(=O)Nc1cc(C(=O)NC(C)c2cccc(OCC(F)(F)F)n2)cc(C)n1 (single isomer, unassigned) [Example 139, 2-methyl-6-propionamido-N-(1-(6-(2,2,2-trifluoroethoxy)pyridin-2-yl)ethyl)isonicotinamide] | < 1000 nM | < 1000 nM
4 | CCOc1nc(OCC(F)(F)F)ccc1CNC(=O)c1cc(C)nc(NC(=O)CC)n1 [Example 359, N-((2-ethoxy-6-(2,2,2-trifluoroethoxy)pyridin-3-yl)methyl)-6-methyl-2-propionamidopyrimidine-4-carboxamide] | < 1000 nM | < 1000 nM
5 | Cc1cc(CNC(=O)c2ccnc(NC(=O)C(C)C)c2)cnc1OCC(F)(F)C(F)F [Example 941, 2-isobutyramido-N-((5-methyl-6-(2,2,3,3-tetrafluoropropoxy)pyridin-3-yl)methyl)isonicotinamide] | < 1000 nM | < 1000 nM
6 | Cc1cc(CNC(=O)c2ccnc(NC(=O)C(C)C)c2)ccc1OCC(F)(F)F [Example 791, 2-isobutyramido-N-(3-methyl-4-(2,2,2-trifluoroethoxy)benzyl)isonicotinamide] | < 1000 nM | < 1000 nM
7 | CC(=O)Nc1cc(C(=O)NCc2ccc(OC(F)(F)F)c(C)c2)cc(C)n1 [Example 808, 2-acetamido-6-methyl-N-(3-methyl-4-(trifluoromethoxy)benzyl)isonicotinamide] | < 1000 nM | < 1000 nM
8 | Cc1cc(C(=O)NCc2cnc(OCC(F)(F)F)c(C)c2)cc(NC(=O)C2CC2)n1 [Example 824, 2-(cyclopropanecarboxamido)-6-methyl-N-((5-methyl-6-(2,2,2-trifluoroethoxy)pyridin-3-yl)methyl)isonicotinamide] | < 1000 nM | < 1000 nM

The remaining lines, values ahead:

Row | IC50 (human Nav1.3 channels) | IC50 (human Nav1.7 channels) | SMILES
9 | < 1000 nM | < 1000 nM | Cc1cc(C(=O)NCc2ccc(OCC(F)(F)F)nc2)cc(NC(=O)C(C)C)n1 [Example 483, 2-isobutyramido-6-methyl-N-((6-(2,2,2-trifluoroethoxy)pyridin-3-yl)methyl)isonicotinamide]
10 | < 1000 nM | < 1000 nM | Cc1cc(C(=O)NC(C)c2cnc(OCC(F)F)c(C)c2)cc(NC(=O)C(C)C)n1 (single isomer, unassigned) [Example 557, N-(1-(6-(2,2-difluoroethoxy)-5-methylpyridin-3-yl)ethyl)-2-isobutyramido-6-methylisonicotinamide]
11 | < 1000 nM | < 1000 nM | Cc1cc(CNC(=O)c2ccnc(NC(=O)C(C)C)c2)ccc1OC(F)(F)F [Example 807, 2-isobutyramido-N-(3-methyl-4-(trifluoromethoxy)benzyl)isonicotinamide]
12 | < 1000 nM | < 1000 nM | CCC(=O)Nc1cc(C(=O)NC(C)c2cccc(OC(F)(F)F)c2)cc(C)n1 (single isomer, unassigned) [Example 134, 2-methyl-6-propionamido-N-(1-(3-(trifluoromethoxy)phenyl)ethyl)isonicotinamide]
13 | < 1000 nM | < 1000 nM | Cc1cc(C(=O)NCc2cnc(OCC(F)(F)F)c(C)c2)cc(NC(=O)CC2CC2)n1 [Example 954, 2-(2-cyclopropylacetamido)-6-methyl-N-((5-methyl-6-(2,2,2-trifluoroethoxy)pyridin-3-yl)methyl)isonicotinamide]

Reference: patent US9302991B2, “Arylamide derivatives as TTX-S blockers” (RaQualia Pharma Inc., priority 2010, dated 2016)
